Measured values reported in the supplement of paper PMC10307832.

What was measured:
Test in all cases: relative viability (nuclei count vs DMSO), 5 days (fraction); higher = more cells survive
ABC-1 = system: ABC-1
In short: (§1)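 A single step with final 0.05% Triton X-100, 1% formaldehyde and 1 ug/ml Hoechst fixed the cells and stained nuclei 5 days after treatment. Lung cancer cell lines in 1536-well plates had been treated by pin tool the day after seeding with one drug alone or a fixed anchor-drug dose plus five library-drug doses (not always all listed) in √10 steps, and nuclei were counted on 4× images. Relative viability is the ratio of nuclei in treated wells to nuclei in vehicle wells, taken as the median of duplicate plates.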

COR-L23 = system: COR-L23
In short: as §1

ChaGo-K-1 = system: ChaGo-K-1
In short: as §1

EMC-BAC-2 = system: EMC-BAC-2
In short: as §1

HARA = system: HARA
In short: as §1

HCC-15 = system: HCC-15
In short: as §1

HCC-366 = system: HCC-366
In short: as §1

HCC-78 = system: HCC-78
In short: as §1

HOP-62 = system: HOP-62
In short: as §1

LC-2-ad = system: LC-2-ad
In short: as §1

NCI-H1395 = system: NCI-H1395
In short: as §1

NCI-H1793 = system: NCI-H1793
In short: as §1

NCI-H1944 = system: NCI-H1944
In short: as §1

NCI-H1993 = system: NCI-H1993
In short: as §1

NCI-H2023 = system: NCI-H2023
In short: as §1

NCI-H2126 = system: NCI-H2126
In short: as §1

NCI-H2228 = system: NCI-H2228
In short: as §1

NCI-H23 = system: NCI-H23
In short: as §1

NCI-H2405 = system: NCI-H2405
In short: as §1

NCI-H358 = system: NCI-H358
In short: as §1

NCI-H838 = system: NCI-H838
In short: as §1

SK-LU-1 = system: SK-LU-1
In short: as §1

## CC(=O)O[C@@]12CO[C@@H]1C[C@H](O)[C@@]1(C)C(=O)[C@H](O)C3=C(C)[C@@H](OC(=O)[C@H](O)[C@@H](NC(=O)OC(C)(C)C)c4ccccc4)C[C@@](O)([C@@H](OC(=O)c4ccccc4)[C@H]21)C3(C)C [Docetaxel] + CS(=O)(=O)N1CCN(Cc2cc3nc(-c4cccc5[nH]ncc45)nc(N4CCOCC4)c3s2)CC1 [Pictilisib] (partner 1 µM)
ABC-1; first compound 0.0002 µM
  relative viability: 0.772
ABC-1; first compound 0.000632 µM
  relative viability: 0.685
ABC-1; first compound 0.002 µM
  relative viability: 0.442
ABC-1; first compound 0.006325 µM
  relative viability: 0.304
ABC-1; first compound 0.02 µM
  relative viability: 0.253
COR-L23; first compound 0.0002 µM
  relative viability: 0.632
COR-L23; first compound 0.000632 µM
  relative viability: 0.649
COR-L23; first compound 0.002 µM
  relative viability: 0.42
COR-L23; first compound 0.006325 µM
  relative viability: 0.124
COR-L23; first compound 0.02 µM
  relative viability: 0.0817
ChaGo-K-1; first compound 0.0002 µM
  relative viability: 0.771
ChaGo-K-1; first compound 0.000632 µM
  relative viability: 0.421
ChaGo-K-1; first compound 0.002 µM
  relative viability: 0.44
ChaGo-K-1; first compound 0.006325 µM
  relative viability: 0.354
ChaGo-K-1; first compound 0.02 µM
  relative viability: 0.201
EMC-BAC-2; first compound 0.0002 µM
  relative viability: 0.555
EMC-BAC-2; first compound 0.000632 µM
  relative viability: 0.469
EMC-BAC-2; first compound 0.002 µM
  relative viability: 0.324
EMC-BAC-2; first compound 0.006325 µM
  relative viability: 0.271
EMC-BAC-2; first compound 0.02 µM
  relative viability: 0.207
HARA; first compound 0.0002 µM
  relative viability: 0.211
HARA; first compound 0.000632 µM
  relative viability: 0.159
HARA; first compound 0.002 µM
  relative viability: 0.126
HARA; first compound 0.006325 µM
  relative viability: 0.0701
HARA; first compound 0.02 µM
  relative viability: 0.0659
HCC-15; first compound 0.0002 µM
  relative viability: 0.679
HCC-15; first compound 0.000632 µM
  relative viability: 0.491
HCC-15; first compound 0.002 µM
  relative viability: 0.226
HCC-366; first compound 0.0002 µM
  relative viability: 0.0877
HCC-366; first compound 0.002 µM
  relative viability: 0.0735
HCC-366; first compound 0.006325 µM
  relative viability: 0.0362
HCC-366; first compound 0.02 µM
  relative viability: 0.0228
HCC-78; first compound 0.0002 µM
  relative viability: 0.204
HCC-78; first compound 0.000632 µM
  relative viability: 0.185
HCC-78; first compound 0.002 µM
  relative viability: 0.172
HCC-78; first compound 0.006325 µM
  relative viability: 0.166
HCC-78; first compound 0.02 µM
  relative viability: 0.204
HOP-62; first compound 0.0002 µM
  relative viability: 0.75
HOP-62; first compound 0.000632 µM
  relative viability: 0.395
HOP-62; first compound 0.02 µM
  relative viability: 0.101
LC-2-ad; first compound 0.0002 µM
  relative viability: 0.29
LC-2-ad; first compound 0.002 µM
  relative viability: 0.106
LC-2-ad; first compound 0.006325 µM
  relative viability: 0.113
LC-2-ad; first compound 0.02 µM
  relative viability: 0.0847
NCI-H1395; first compound 0.0002 µM
  relative viability: 0.53
NCI-H1395; first compound 0.000632 µM
  relative viability: 0.617
NCI-H1395; first compound 0.002 µM
  relative viability: 0.543
NCI-H1395; first compound 0.006325 µM
  relative viability: 0.382
NCI-H1395; first compound 0.02 µM
  relative viability: 0.384
NCI-H1793; first compound 0.0002 µM
  relative viability: 0.323
NCI-H1793; first compound 0.000632 µM
  relative viability: 0.369
NCI-H1793; first compound 0.002 µM
  relative viability: 0.279
NCI-H1793; first compound 0.006325 µM
  relative viability: 0.289
NCI-H1793; first compound 0.02 µM
  relative viability: 0.204
NCI-H1944; first compound 0.0002 µM
  relative viability: 0.338
NCI-H1944; first compound 0.000632 µM
  relative viability: 0.368
NCI-H1944; first compound 0.002 µM
  relative viability: 0.318
NCI-H1944; first compound 0.006325 µM
  relative viability: 0.322
NCI-H1944; first compound 0.02 µM
  relative viability: 0.178
NCI-H1993; first compound 0.0002 µM
  relative viability: 0.746
NCI-H1993; first compound 0.000632 µM
  relative viability: 0.706
NCI-H1993; first compound 0.002 µM
  relative viability: 0.729
NCI-H1993; first compound 0.006325 µM
  relative viability: 0.682
NCI-H1993; first compound 0.02 µM
  relative viability: 0.545
NCI-H2023; first compound 0.0002 µM
  relative viability: 0.213
NCI-H2023; first compound 0.000632 µM
  relative viability: 0.188
NCI-H2023; first compound 0.002 µM
  relative viability: 0.142
NCI-H2023; first compound 0.006325 µM
  relative viability: 0.11
NCI-H2023; first compound 0.02 µM
  relative viability: 0.0766
NCI-H2126; first compound 0.0002 µM
  relative viability: 0.518
NCI-H2126; first compound 0.000632 µM
  relative viability: 0.541
NCI-H2126; first compound 0.002 µM
  relative viability: 0.393
NCI-H2126; first compound 0.006325 µM
  relative viability: 0.362
NCI-H2126; first compound 0.02 µM
  relative viability: 0.257
NCI-H2228; first compound 0.0002 µM
  relative viability: 0.291
NCI-H2228; first compound 0.000632 µM
  relative viability: 0.153
NCI-H2228; first compound 0.002 µM
  relative viability: 0.138
NCI-H2228; first compound 0.006325 µM
  relative viability: 0.18
NCI-H2228; first compound 0.02 µM
  relative viability: 0.131
NCI-H23; first compound 0.0002 µM
  relative viability: 0.499
NCI-H23; first compound 0.000632 µM
  relative viability: 0.403
NCI-H23; first compound 0.002 µM
  relative viability: 0.248
NCI-H23; first compound 0.006325 µM
  relative viability: 0.185
NCI-H23; first compound 0.02 µM
  relative viability: 0.144
NCI-H2405; first compound 0.0002 µM
  relative viability: 0.393
NCI-H2405; first compound 0.000632 µM
  relative viability: 0.429
NCI-H2405; first compound 0.002 µM
  relative viability: 0.39
NCI-H2405; first compound 0.006325 µM
  relative viability: 0.272
NCI-H2405; first compound 0.02 µM
  relative viability: 0.182
NCI-H358; first compound 0.0002 µM
  relative viability: 0.321
NCI-H358; first compound 0.000632 µM
  relative viability: 0.34
NCI-H358; first compound 0.002 µM
  relative viability: 0.283
NCI-H358; first compound 0.02 µM
  relative viability: 0.157
NCI-H838; first compound 0.0002 µM
  relative viability: 0.477
NCI-H838; first compound 0.000632 µM
  relative viability: 0.473
NCI-H838; first compound 0.002 µM
  relative viability: 0.276
NCI-H838; first compound 0.006325 µM
  relative viability: 0.149
NCI-H838; first compound 0.02 µM
  relative viability: 0.116
SK-LU-1; first compound 0.0002 µM
  relative viability: 0.608
SK-LU-1; first compound 0.000632 µM
  relative viability: 0.305
SK-LU-1; first compound 0.002 µM
  relative viability: 0.253
SK-LU-1; first compound 0.006325 µM
  relative viability: 0.181
SK-LU-1; first compound 0.02 µM
  relative viability: 0.171
